Experimental data taken from US5234935A, “N-alkylated 1,4-dihydropyridine-dicarboxylic acid esters” (Bayer Aktiengesellschaft, priority 1990, dated 1993).

What was measured:
erythrocytes [1] = experiment: Calcium permeability of erythrocytes (45Ca) after ATPase blockade by Na ortho-vanadate; format: cell-based; conditions: Erythrocyte; inhibition of calcium influx (45Ca); Na ortho-vanadate 0.75 mM; read-out: ED50 of the inhibition
Experimental: Test a) measures the calcium permeability (^45 Ca) by blockade of the ATPases by Na ortho-vanadate. As a result, calcium can accumulate in the erythrocytes. A consequence is a reduced flexibility. ED50 values (mol/l) for the inhibition of calcium influx are given for test a).
After blockade of the membrane-immobilized ATPases by Na ortho-vanadate (0.75 mM), the calcium permeability is measured (^45 Ca method). Accumulation of calcium reduces the flexibility of the erythrocytes.

erythrocytes [2] = experiment: Antihaemolytic action, calcium-laden erythrocytes under high shearing stress; format: cell-based; conditions: Erythrocyte; reduction of haemoglobin release from calcium-laden erythrocytes; read-out: ED50 of the antihaemolytic action
Source text: Test b) detects the antihaemolytic action of the substances (ED50, mol/l). In this test, calcium-laden erythrocytes are forced through small pores under high shearing stresses, so that haemoglobin is released as a result of their haemolysis and measured. The reduction in haemoglobin release is the measured quantity.
Normal erythrocytes become haemolytic under high shearing stresses. The haemolysis of calcium-laden cells is particularly pronounced. This measure of mechanical stability is used for substance characterization. The measured quantity is the concentration of free haemoglobin in the medium.

leukocyte adhesion = experiment: Leukocyte adhesion in hamster cheek pouch model; format: in vivo; conditions: 0.1 mg/kg i.v.; for Leukocyte adhesion, Ischaemic, control = 100%: ischaemic (10 min circulation stop), small arterioles; for Leukocyte adhesion, Non-ischaemic, control = 100%: small venules
Experimental: The microcirculation can be directly observed in the hamster cheek pouch model. Measured quantities are leukocyte adhesion and also vessel diameter and erythrocyte velocity. The adhesion was quantified under ischaemic and non-ischaemic experimental conditions. Under non-ischaemic conditions, the adhesion is quantified in the area of small venules, under ischaemic conditions (10 min circulation stop) the adhesion is quantified in small arterioles. The results of the control experiments are given relative to 100%. 0.1 mg/kg i.v. is in each case chosen as the test dose, the results are decreases in % of the control.

SH rats = experiment: Blood pressure in SH rats after p.o. administration (tail artery, Riva Rocci); format: in vivo, rat
Experimental: (§1) The blood pressure neutrality is determined in the following models, which are typical for dihydropyridines: in SH rats after p.o. administration by measurement in the tail artery (Riva Rocci method) and in anaesthetized Wistar rats after i.v. administration (via a catheter inserted in the carotid artery). Blood-neutral compounds are designated as those which reduce the blood pressure by at most 20% of the starting value in both test models at the dose indicated. The difference between the therapeutic dose and the blood pressure action occurring is at least a factor of 10, as a rule a factor of ≥30, in particular ≥100.

[3] = system: anaesthetized Wistar rats; experiment: Blood pressure in anaesthetized Wistar rats after i.v. administration (carotid catheter); format: in vivo, rat
Experimental: as §1

erythrocytes [4] = experiment: Filtration of calcium-laden erythrocytes through 5 μm pores; format: cell-based; conditions: Erythrocyte, 0.5 h; filtration through 5 μm sieve pores; sheared in normal buffer 30 min; read-out: ED50 improvement in the flexibility compared to damage to control
Experimental: Test c) detects the filterability of calcium-laden erythrocytes through 5 μm pores (ED50, mol/l). In this test, the membrane flexibility plays a role under small force gradients.
Filtration of erythrocytes through 5 μm sieve pores is an established method for the determination of the deformability of erythrocytes. The cells are sheared in normal buffer for 30 min so that the calcium concentration increases intracellularly and the flexibility is reduced.

SMILES	IC50 (erythrocytes [1]) [µM]	EC50 (erythrocytes [2]) [µM]	Leukocyte adhesion, Ischaemic, control = 100% (leukocyte adhesion) [%]	Leukocyte adhesion, Non-ischaemic, control = 100% (leukocyte adhesion) [%]	Dose at which a blood pressure reduction occurs, p.o. (SH rats) [mg/kg]	Dose at which a blood pressure reduction occurs, i.v. [3] [mg/kg]	EC50 (erythrocytes [4]) [µM]
COC(=O)C1=C(C)N(C)C(C)=C(C(=O)OC)C1c1ccc(C)c(C(F)(F)F)c1 [Example 27, dimethyl 1,2,6-trimethyl-4-(4-methyl-3-trifluoromethylphenyl)-1,4-dihydro-pyridine-3,5-dicarboxylate]	1	0.05	–	–	–	–	–
CCCCOC(=O)C1=C(C)N(C)C(C)=C(C(=O)OCCCC)C1c1ccc([N+](=O)[O-])cc1 [Example 6, dibutyl 1,2,6-trimethyl-4-(4-nitrophenyl)-1,4-dihydropyridine-3,5-dicarboxylate]	–	–	56	50	> 30	> 10	–
COC(=O)C1=C(C)N(C)C(C)=C(C(=O)OC(C)C(C)C)C1c1ccc(C(F)(F)F)cc1 (centres unmarked) [Example 9, methyl 1,2-dimethylpropyl 1,2,6-trimethyl-4-(4-trifluoromethylphenyl)-1,4-dihydro-pyridine-3,5-dicarboxylate]	–	–	36	70	> 30	> 10	–
COC(=O)C1=C(C)N(C)C(C)=C(C(=O)OC)C1c1cccc(F)c1 [Example 2, Dimethyl 4-(3-fluorophenyl)-1,2,6-trimethyl-1,4-dihydropyridine-3,5-dicarboxylate]	–	0.1	–	–	–	–	–
CCOC(=O)C1=C(C)N(C2CC2)C(C)=C(C(=O)OCC)C1c1ccc(C(F)(F)F)cc1 [Example 19, diethyl 1-cyclopropyl-2,6-dimethyl-4-(4-trifluoromethylphenyl)-1,4-dihydro-pyridine-3,5-dicarboxylate]	–	–	34	61	> 100	> 10	–
CCOC(=O)C1=C(C)N(C)C(C)=C(C(=O)OCC)C1c1ccc(C)c([N+](=O)[O-])c1 [Example 22, diethyl 1,2,6-trimethyl-4-(4-methyl-3-nitrophenyl)-1,4-dihydro-pyridine-3,5-dicarboxylate]	–	0.5	–	–	–	–	–
CCCOC(=O)C1=C(C)N(C)C(C)=C(C(=O)OCCC)C1c1ccc(C#N)cc1 [Example 15, dipropyl 1,2,6-trimethyl-4-(4-cyanophenyl)-1,4-dihydropyridine-3,5-dicarboxylate]	–	5	–	–	–	–	–
COC(=O)C1=C(C)N(C)C(C)=C(C(=O)OC)C1c1ccc(C)c([N+](=O)[O-])c1 [Example 21, dimethyl 1,2,6-trimethyl-4-(4-methyl-3-nitrophenyl)-1,4-dihydro-pyridine-3,5-dicarboxylate]	5	0.5	–	–	–	–	–
COC(=O)C1=C(C)N(C)C(C)=C(C(=O)OC)C1c1ccc(Cl)c(C(F)(F)F)c1 [Example 26, dimethyl 1,2,6-trimethyl-4-(4-chloro-3-trifluoromethylphenyl)-1,4-dihydro-pyridine-3,5-dicarboxylate]	–	0.03	–	–	–	–	5
COC(=O)C1=C(C)N(C)C(C)=C(C(=O)OC)C1c1ccc([N+](=O)[O-])c(O)c1 [Example 28, dimethyl 1,2,6-trimethyl-4-(3-hydroxy-4-nitrophenyl)-1,4-dihydro-pyridine-3,5-dicarboxylate]	–	–	–	–	–	–	5
COC(=O)C1=C(C)N(C)C(C)=C(C(=O)OC)C1c1ccc(Br)cc1 [Example 13, dimethyl 1,2,6-trimethyl-4-(4-bromophenyl)-1,4-dihydropyridine-3,5-dicarboxylate]	5	0.5	–	–	–	–	–
CCOC(=O)C1=C(C)N(C)C(C)=C(C(=O)OCC)C1c1ccc(F)cc1 [Example 1, Diethyl 1,2,6-trimethyl-4-(4-fluorophenyl)-1,4-dihydropyridine-3,5-dicarboxylate]	–	–	–	–	–	–	5
COC(=O)C1=C(C)N(C2CC2)C(C)=C(C(=O)OC)C1c1ccc(C(F)(F)F)cc1 [Example 18, dimethyl 1-cyclopropyl-2,6-dimethyl-4-(4-trifluoromethylphenyl)-1,4-dihydro-pyridine-3,5-dicarboxylate]	–	–	32	54	> 30	> 10	–
COC(=O)C1=C(C)N(C)C(C)=C(C(=O)OC)C1c1ccc(C(F)(F)F)cc1 [Example 3, Dimethyl 1,2,6-trimethyl-4-(4-trifluoromethylphenyl)-1,4-dihydro-pyridine-3,5-dicarboxylate]	5	–	31	63	> 30	> 10	5
